Reference: US20240067632A1, “WEE1 Degrading Compounds and Uses Thereof” (Bristol-Myers Squibb Company, priority 2022, published 2024)
Read-outs that look alike come from different tables or passages of the source.

Columns and labels:
WEE1 = target: T1, WEE1 (Homo sapiens, UniProt P30291+Q96SW2); assay: WEE1-ePL degradation assay (LentiX-WEE1-ePL-GSPT1-ND cells, InCELL Hunter luminescence, 4 h); assay type: cell-based; details: 293T-LentiX WEE1-ePL cells; for DC50: read-out: 293T-LentiX WEE1-ePL Degradation 4 hr (EC50)
T1 construct: C-terminal ePL-tagged (DiscoverX, Fremont, CA) full-length WEE1 expression construct; expressed in transfected cells; host or cells: LentiX-HEK293T (Invitrogen), lentiviral transduction; co-expressing GSPT1-GN (G576N, lacking the first 158 amino acids)
How it was run: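 Luminescent readout (InCELL Hunter, 30 min RT) of WEE1-ePL levels in transduced HEK293T cells after 4 h compound exposure at 37 °C. Dosing: 10 points, 3-fold steps, top 1 uM or 10 uM. EC50 from four-parameter logistic fit; Ymax set by DMSO.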

MKN45 cells = assay: MKN45 cell proliferation assay (Cell-Titer-Glo, 120 h); assay type: cell-based; details: for EC50: Homo sapiens, MKN-45, 120 h, Cell-Titer-Glo, read-out: MKN45 Cell Prolif. 120 hr (EC50); for MKN45 Cell Prolif. 120 hr (Ymin-Obs): minimal percent of DMSO control observed in the concentrations tested
How it was run: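 Growth inhibition was read as blank-corrected Cell-Titer-Glo luminescence expressed as percent DMSO control after 120 h at 37 C, 400 cells/well. Compounds tested in triplicate as 10-point half-log series from 1 or 10 uM, 0.1% DMSO; four-parameter fit gave EC50, and lowest observed percent control was reported as Ymin-obs.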

[1] = lower limit of the fit (0 = luciferase inhibitor, Ymax = DMSO control)

293T-LentiX WEE1-ePL Degradation 4 hr (Ymin) (WEE1; [1]) | DC50 (WEE1) | EC50 (MKN45 cells; growth inhibition) | 293T-LentiX WEE1-ePL Degradation 4 hr (Ymin) (WEE1; lower limit of the fit (Ymin=0 luciferase inhibitor, Ymax DMSO control)) | EC50 (MKN45 cells) | SMILES | MKN45 Cell Prolif. 120 hr (Ymin-Obs) (MKN45 cells)
33.67 | 5.4 nM | 20.8 nM |  |  | O=C1CCC(N2Cc3cc(O[C@H]4CCN(Cc5ccc6nc(CC(F)(F)F)ccc6c5)C4)ccc3C2=O)C(=O)N1 (stereo partly drawn) [3-(1-oxo-5-{[(3S)-1-{[2-(2,2,2-trifluoroethyl)quinolin-6-yl]methyl}pyrrolidin-3-yl]oxy}-2,3-dihydro-1H-isoindol-2-yl)piperidine-2,6-dione] | 13.32
35 | 2.27 nM | 1.93 nM |  |  | O=C1CCC(N2Cc3cc(O[C@H]4CCN(Cc5ccc6nc(-n7ccccc7=O)ccc6c5)C4)ccc3C2=O)C(=O)N1 (stereo partly drawn) [3-(1-oxo-5-{[(3S)-1-{[2-(2-oxo-1,2-dihydropyridin-1-yl)quinolin-6-yl]methyl}pyrrolidin-3-yl]oxy}-2,3-dihydro-1H-isoindol-2-yl)piperidine-2,6-dione] | 8.805
31.5 | 1.73 nM | 0.959 nM |  |  | O=C1CCC(N2Cc3cc(O[C@H]4CCN(Cc5ccc6nc(N7CCCCC7=O)ccc6c5)C4)ccc3C2=O)C(=O)N1 (stereo partly drawn) [3-(1-oxo-5-{[(3S)-1-{[2-(2-oxopiperidin-1-yl)quinolin-6-yl]methyl}pyrrolidin-3-yl]oxy}-2,3-dihydro-1H-isoindol-2-yl)piperidine-2,6-dione] | 7.56
31 | 1.83 nM | 7.19 nM |  |  | O=C1CCC(N2Cc3cc(O[C@H]4CCN(Cc5ccc6nc(N7CCCC7=O)ccc6c5)C4)ccc3C2=O)C(=O)N1 (stereo partly drawn) [3-(1-oxo-5-{[(3S)-1-{[2-(2-oxopyrrolidin-1-yl)quinolin-6-yl]methyl}pyrrolidin-3-yl]oxy}-2,3-dihydro-1H-isoindol-2-yl)piperidine-2,6-dione] | 10.36
32 | 2.43 nM | 2.91 nM |  |  | O=C1CCC(N2Cc3cc(O[C@H]4CCN(Cc5ccc6nc(N7CCOCC7=O)ccc6c5)C4)ccc3C2=O)C(=O)N1 (stereo partly drawn) [3-(1-oxo-5-{[(3S)-1-{[2-(3-oxomorpholin-4-yl)quinolin-6-yl]methyl}pyrrolidin-3-yl]oxy}-2,3-dihydro-1H-isoindol-2-yl)piperidine-2,6-dione] | 6.88
29 | 38.9 nM | 51.6 nM |  |  | CC#Cc1ncc2cc(CN3CC[C@H](Oc4ccc5c(c4)CN(C4CCC(=O)NC4=O)C5=O)C3)ccc2n1 (stereo partly drawn) [3-(1-oxo-5-{[(3S)-1-{[2-(prop-1-yn-1-yl)quinazolin-6-yl]methyl}pyrrolidin-3-yl]oxy}-2,3-dihydro-1H-isoindol-2-yl)piperidine-2,6-dione] | 8.56
29.33 | 3.18 nM | 2.02 nM |  |  | CC#Cc1ccc2cc(CN3CC[C@H](Oc4ccc5c(c4)CN(C4CCC(=O)NC4=O)C5=O)C3)ccc2n1 (stereo partly drawn) [3-(1-oxo-5-{[(3S)-1-{[2-(prop-1-yn-1-yl)quinolin-6-yl]methyl}pyrrolidin-3-yl]oxy}-2,3-dihydro-1H-isoindol-2-yl)piperidine-2,6-dione] | 8.03
35 | 6.39 nM | 2.88 nM |  |  | O=C1CCC(N2Cc3cc(O[C@H]4CCN(Cc5ccc6nc(Oc7ccccn7)ccc6c5)C4)ccc3C2=O)C(=O)N1 (stereo partly drawn) [3-(1-oxo-5-{[(3S)-1-{[2-(pyridin-2-yloxy)quinolin-6-yl]methyl}pyrrolidin-3-yl]oxy}-2,3-dihydro-1H-isoindol-2-yl)piperidine-2,6-dione] | 7.62
34 | 3.97 nM | 6.02 nM |  |  | O=C1CCC(N2Cc3cc(O[C@H]4CCN(Cc5ccc6nc(N7CCCC7)ccc6c5)C4)ccc3C2=O)C(=O)N1 (stereo partly drawn) [3-(1-oxo-5-{[(3S)-1-{[2-(pyrrolidin-1-yl)quinolin-6-yl]methyl}pyrrolidin-3-yl]oxy}-2,3-dihydro-1H-isoindol-2-yl)piperidine-2,6-dione] | 11.865
29.67 | 8.11 nM | 33.2 nM |  |  | O=C1CCC(N2Cc3cc(O[C@H]4CCN(Cc5ccc6nc(C(F)(F)F)ncc6c5)C4)ccc3C2=O)C(=O)N1 (stereo partly drawn) [3-(1-oxo-5-{[(3S)-1-{[2-(trifluoromethyl)quinazolin-6-yl]methyl}pyrrolidin-3-yl]oxy}-2,3-dihydro-1H-isoindol-2-yl)piperidine-2,6-dione] | 14.74
39.87 | 29.3 nM | 257 nM |  |  | O=C1CCC(N2Cc3cc(O[C@H]4CCN(Cc5cc6ccccc6nc5C(F)(F)F)C4)ccc3C2=O)C(=O)N1 (stereo partly drawn) [3-(1-oxo-5-{[(3S)-1-{[2-(trifluoromethyl)quinolin-3-yl]methyl}pyrrolidin-3-yl]oxy}-2,3-dihydro-1H-isoindol-2-yl)piperidine-2,6-dione] | 73.03
24.72 | 5.42 nM | 7.29 nM |  |  | O=C1CCC(N2Cc3cc(O[C@H]4CCN(Cc5ccc6nc(C(F)(F)F)ccc6c5)C4)ccc3C2=O)C(=O)N1 (stereo partly drawn) [3-(1-oxo-5-{[(3S)-1-{[2-(trifluoromethyl)quinolin-6-yl]methyl}pyrrolidin-3-yl]oxy}-2,3-dihydro-1H-isoindol-2-yl)piperidine-2,6-dione] | 8.76
32 | 2.85 nM | 15.9 nM |  |  | O=C1CCC(N2Cc3cc(O[C@H]4CCN(Cc5ccc6ncc(C(F)(F)F)cc6c5)C4)ccc3C2=O)C(=O)N1 (stereo partly drawn) [3-(1-oxo-5-{[(3S)-1-{[3-(trifluoromethyl)quinolin-6-yl]methyl}pyrrolidin-3-yl]oxy}-2,3-dihydro-1H-isoindol-2-yl)piperidine-2,6-dione] | 11.23
53.66 | 52.6 nM | 363 nM |  |  | O=C1CCC(N2Cc3cc(O[C@H]4CCN(Cc5ccc(C(F)(F)F)cn5)C4)ccc3C2=O)C(=O)N1 (stereo partly drawn) [3-(1-oxo-5-{[(3S)-1-{[5-(trifluoromethyl)pyridin-2-yl]methyl}pyrrolidin-3-yl]oxy}-2,3-dihydro-1H-isoindol-2-yl)piperidine-2,6-dione] | 65.6
33.76 | 36.9 nM | 842 nM |  |  | O=C1CCC(N2Cc3cc(O[C@H]4CCN(Cc5cncc(C(F)(F)F)c5)C4)ccc3C2=O)C(=O)N1 (stereo partly drawn) [3-(1-oxo-5-{[(3S)-1-{[5-(trifluoromethyl)pyridin-3-yl]methyl}pyrrolidin-3-yl]oxy}-2,3-dihydro-1H-isoindol-2-yl)piperidine-2,6-dione] | 54.82
31 | 1.47 nM | 1.14 nM |  |  | O=C1CCC(N2Cc3cc(O[C@H]4CCN(Cc5cc6ccc(C(F)(F)F)cc6cn5)C4)ccc3C2=O)C(=O)N1 (stereo partly drawn) [3-(1-oxo-5-{[(3S)-1-{[7-(trifluoromethyl)isoquinolin-3-yl]methyl}pyrrolidin-3-yl]oxy}-2,3-dihydro-1H-isoindol-2-yl)piperidine-2,6-dione] | 6.875
25.75 | 8.41 nM | 28.5 nM |  |  | [2H]c1nc2ccccc2cc1CN1CCC(Oc2ccc3c(c2)CN(C2CCC(=O)NC2=O)C3=O)C1 [3-(1-oxo-5-{[(3S)-1-{[(2-^2H)quinolin-3-yl]methyl}pyrrolidin-3-yl]oxy}-2,3-dihydro-1H-isoindol-2-yl)piperidine-2,6-dione] | 9.675
29.5 | 4.09 nM | 26.9 nM |  |  | [2H]c1ccc2cc(CN3CCC(Oc4ccc5c(c4)CN(C4CCC(=O)NC4=O)C5=O)C3)ccc2n1 [3-(1-oxo-5-{[(3S)-1-{[(2-^2H)quinolin-6-yl]methyl}pyrrolidin-3-yl]oxy}-2,3-dihydro-1H-isoindol-2-yl)piperidine-2,6-dione] | 9.14
 | 3.64 nM |  | 27.14 | 22.6 nM | O=C1CCC(N2Cc3cc(O[C@@H]4CN(Cc5ccc6nc([C@H]7CCOC7)ccc6c5)C[C@H]4C(F)(F)F)ccc3C2=O)C(=O)N1 (stereo partly drawn) [3-(1-oxo-5-{[(3S,4R)-1-({2-[(3R)-oxolan-3-yl]quinolin-6-yl}methyl)-4-(trifluoromethyl)pyrrolidin-3-yl]oxy}-2,3-dihydro-1H-isoindol-2-yl)piperidine-2,6-dione] | 24.26
27.98 | 8.74 nM | 42.4 nM |  |  | O=C1CCC(N2Cc3ccc(O[C@H]4CCN(Cc5cnc6ccccc6c5)C4)cc3C2=O)C(=O)N1 (stereo partly drawn) [3-(1-oxo-6-{[(3S)-1-[(quinolin-3-yl)methyl]pyrrolidin-3-yl]oxy}-2,3-dihydro-1H-isoindol-2-yl)piperidine-2,6-dione] | 12.43
